Values of other authors, collected in US9447122B2, “Arginase inhibitors and methods of use thereof” (AstraZeneca AB, priority 2010, dated 2016).

Experiments:
arginase = target: T1, arginase (Homo sapiens, UniProt P78540); conditions: literature; cited from earlier work
T1 sequence (P78540 23-354): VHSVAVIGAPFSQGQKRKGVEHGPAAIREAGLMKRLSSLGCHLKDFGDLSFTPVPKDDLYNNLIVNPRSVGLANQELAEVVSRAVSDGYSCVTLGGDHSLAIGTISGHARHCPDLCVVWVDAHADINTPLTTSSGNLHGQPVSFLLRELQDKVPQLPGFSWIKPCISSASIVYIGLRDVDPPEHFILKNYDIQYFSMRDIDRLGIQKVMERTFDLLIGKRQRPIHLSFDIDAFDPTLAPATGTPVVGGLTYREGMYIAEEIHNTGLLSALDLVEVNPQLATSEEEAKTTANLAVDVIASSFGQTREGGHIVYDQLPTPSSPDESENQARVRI

humans = conditions: subcutaneous administration; cited from earlier work

Q: Which “inhibitory potency at pH 7.5 vs pH 9.5” value (arginase) does the source give for N[C@@H](CSCCB(O)O)C(=O)O [BEC, S-(2-boronoethyl)-L-cysteine] here?
A: much lower at pH 7.5 than at pH 9.5

Q: What about the vasodilation and circulation (humans) of the same compound?
A: vasodilatory and enhances circulation
